Results taken from the supplement of paper PMC8882468.

Tested on: HCI-024 (organoid from a breast cancer xenograft)
Assay: CTG-3D luminescence at 96 h relative to day-0 seeding control (ratio to day 0); higher = more growth / less cytotoxicity; PDxO 3D drug screen, 96 h, CTG-3D normalised to day-0 seeding control.
Settings: 0.1 µM; days in culture: 105

Row | SMILES | CTG-3D luminescence at 96 h
1 | COc1cccc2c1C(=O)c1c(O)c3c(c(O)c1C2=O)C[C@@](O)(C(=O)CO)C[C@@H]3O[C@H]1C[C@H](N)[C@H](O)[C@H](C)O1 [doxorubicin] | 1.53
2 | O=C(O)C1(C(=O)O)CCC1.[NH2-].[NH2-].[Pt+2] [carboplatin] | 1.52
3 | NC(=O)Nc1cc(-c2cccc(F)c2)sc1C(=O)N[C@H]1CCCNC1 [AZD7762] | 0.635
4 | Nc1ccn([C@@H]2O[C@H](CO)[C@@H](O)C2(F)F)c(=O)n1 [gemcitabine] | 0.795
5 | CC1(C)CCC(c2ccc(Cl)cc2)=C(CN2CCN(c3ccc(C(=O)NS(=O)(=O)c4ccc(N[C@H](CCN5CCOCC5)CSc5ccccc5)c(S(=O)(=O)C(F)(F)F)c4)cc3)CC2)C1 [navitoclax] | 1.47
6 | CN(Cc1cnc2nc(N)nc(N)c2n1)c1ccc(C(=O)N[C@@H](CCC(=O)O)C(=O)O)cc1 [methotrexate] | 1.99
7 | C=CCn1c(=O)c2cnc(Nc3ccc(N4CCN(C)CC4)cc3)nc2n1-c1cccc(C(C)(C)O)n1 [adavosertib] | 1.44
8 | CC(C)(C(=O)NCC(F)(F)C(F)(F)F)C(=O)N[C@@H]1C(=O)Nc2ccccc2-c2ccccc21 | 1.85
9 | C[C@@H]1COCCN1c1cc(C2([S@](C)(=N)=O)CC2)nc(-c2cc[nH]c3nccc2-3)n1 [ceralasertib] | 1.5
10 | CCN1CCN(Cc2ccc(Nc3ncc(F)c(-c4cc(F)c5nc(C)n(C(C)C)c5c4)n3)nc2)CC1 [abemaciclib] | 1.48

Same assay, conditions: 0.1 µM; days in culture: 122

Row | SMILES | CTG-3D luminescence at 96 h
11 | COc1cccc2c1C(=O)c1c(O)c3c(c(O)c1C2=O)C[C@@](O)(C(=O)CO)C[C@@H]3O[C@H]1C[C@H](N)[C@H](O)[C@H](C)O1 [doxorubicin] | 1.45
12 | O=C(O)C1(C(=O)O)CCC1.[NH2-].[NH2-].[Pt+2] [carboplatin] | 1.65
13 | NC(=O)Nc1cc(-c2cccc(F)c2)sc1C(=O)N[C@H]1CCCNC1 [AZD7762] | 0.853
14 | Nc1ccn([C@@H]2O[C@H](CO)[C@@H](O)C2(F)F)c(=O)n1 [gemcitabine] | 0.864
15 | CC1(C)CCC(c2ccc(Cl)cc2)=C(CN2CCN(c3ccc(C(=O)NS(=O)(=O)c4ccc(N[C@H](CCN5CCOCC5)CSc5ccccc5)c(S(=O)(=O)C(F)(F)F)c4)cc3)CC2)C1 [navitoclax] | 1.88
16 | CN(Cc1cnc2nc(N)nc(N)c2n1)c1ccc(C(=O)N[C@@H](CCC(=O)O)C(=O)O)cc1 [methotrexate] | 2
17 | C=CCn1c(=O)c2cnc(Nc3ccc(N4CCN(C)CC4)cc3)nc2n1-c1cccc(C(C)(C)O)n1 [adavosertib] | 2.01
18 | CC(C)(C(=O)NCC(F)(F)C(F)(F)F)C(=O)N[C@@H]1C(=O)Nc2ccccc2-c2ccccc21 | 1.67
19 | C[C@@H]1COCCN1c1cc(C2([S@](C)(=N)=O)CC2)nc(-c2cc[nH]c3nccc2-3)n1 [ceralasertib] | 2
20 | CCN1CCN(Cc2ccc(Nc3ncc(F)c(-c4cc(F)c5nc(C)n(C(C)C)c5c4)n3)nc2)CC1 [abemaciclib] | 1.89

Same assay, conditions: 0.1 µM; days in culture: 163

Row | SMILES | CTG-3D luminescence at 96 h
21 | COc1cccc2c1C(=O)c1c(O)c3c(c(O)c1C2=O)C[C@@](O)(C(=O)CO)C[C@@H]3O[C@H]1C[C@H](N)[C@H](O)[C@H](C)O1 [doxorubicin] | 2.3
22 | O=C(O)C1(C(=O)O)CCC1.[NH2-].[NH2-].[Pt+2] [carboplatin] | 2.67
23 | NC(=O)Nc1cc(-c2cccc(F)c2)sc1C(=O)N[C@H]1CCCNC1 [AZD7762] | 1.27
24 | Nc1ccn([C@@H]2O[C@H](CO)[C@@H](O)C2(F)F)c(=O)n1 [gemcitabine] | 1.61
25 | CC1(C)CCC(c2ccc(Cl)cc2)=C(CN2CCN(c3ccc(C(=O)NS(=O)(=O)c4ccc(N[C@H](CCN5CCOCC5)CSc5ccccc5)c(S(=O)(=O)C(F)(F)F)c4)cc3)CC2)C1 [navitoclax] | 2.8
26 | CN(Cc1cnc2nc(N)nc(N)c2n1)c1ccc(C(=O)N[C@@H](CCC(=O)O)C(=O)O)cc1 [methotrexate] | 2.4
27 | C=CCn1c(=O)c2cnc(Nc3ccc(N4CCN(C)CC4)cc3)nc2n1-c1cccc(C(C)(C)O)n1 [adavosertib] | 2.44
28 | CC(C)(C(=O)NCC(F)(F)C(F)(F)F)C(=O)N[C@@H]1C(=O)Nc2ccccc2-c2ccccc21 | 2.27
29 | C[C@@H]1COCCN1c1cc(C2([S@](C)(=N)=O)CC2)nc(-c2cc[nH]c3nccc2-3)n1 [ceralasertib] | 2.32
30 | CCN1CCN(Cc2ccc(Nc3ncc(F)c(-c4cc(F)c5nc(C)n(C(C)C)c5c4)n3)nc2)CC1 [abemaciclib] | 2.45

Same assay, conditions: 1 µM; days in culture: 105

Row | SMILES | CTG-3D luminescence at 96 h
31 | COc1cccc2c1C(=O)c1c(O)c3c(c(O)c1C2=O)C[C@@](O)(C(=O)CO)C[C@@H]3O[C@H]1C[C@H](N)[C@H](O)[C@H](C)O1 [doxorubicin] | 1.05
32 | O=C(O)C1(C(=O)O)CCC1.[NH2-].[NH2-].[Pt+2] [carboplatin] | 1.36
33 | NC(=O)Nc1cc(-c2cccc(F)c2)sc1C(=O)N[C@H]1CCCNC1 [AZD7762] | 0.236
34 | Nc1ccn([C@@H]2O[C@H](CO)[C@@H](O)C2(F)F)c(=O)n1 [gemcitabine] | 0.966
35 | CC1(C)CCC(c2ccc(Cl)cc2)=C(CN2CCN(c3ccc(C(=O)NS(=O)(=O)c4ccc(N[C@H](CCN5CCOCC5)CSc5ccccc5)c(S(=O)(=O)C(F)(F)F)c4)cc3)CC2)C1 [navitoclax] | 1.01
36 | CN(Cc1cnc2nc(N)nc(N)c2n1)c1ccc(C(=O)N[C@@H](CCC(=O)O)C(=O)O)cc1 [methotrexate] | 1.64
37 | C=CCn1c(=O)c2cnc(Nc3ccc(N4CCN(C)CC4)cc3)nc2n1-c1cccc(C(C)(C)O)n1 [adavosertib] | 0.852
38 | CC(C)(C(=O)NCC(F)(F)C(F)(F)F)C(=O)N[C@@H]1C(=O)Nc2ccccc2-c2ccccc21 | 1.67
39 | C[C@@H]1COCCN1c1cc(C2([S@](C)(=N)=O)CC2)nc(-c2cc[nH]c3nccc2-3)n1 [ceralasertib] | 0.841
40 | CCN1CCN(Cc2ccc(Nc3ncc(F)c(-c4cc(F)c5nc(C)n(C(C)C)c5c4)n3)nc2)CC1 [abemaciclib] | 1.25

Same assay, conditions: 1 µM; days in culture: 122

Row | SMILES | CTG-3D luminescence at 96 h
41 | COc1cccc2c1C(=O)c1c(O)c3c(c(O)c1C2=O)C[C@@](O)(C(=O)CO)C[C@@H]3O[C@H]1C[C@H](N)[C@H](O)[C@H](C)O1 [doxorubicin] | 1.06
42 | O=C(O)C1(C(=O)O)CCC1.[NH2-].[NH2-].[Pt+2] [carboplatin] | 1.8
43 | NC(=O)Nc1cc(-c2cccc(F)c2)sc1C(=O)N[C@H]1CCCNC1 [AZD7762] | 0.308
44 | Nc1ccn([C@@H]2O[C@H](CO)[C@@H](O)C2(F)F)c(=O)n1 [gemcitabine] | 0.97
45 | CC1(C)CCC(c2ccc(Cl)cc2)=C(CN2CCN(c3ccc(C(=O)NS(=O)(=O)c4ccc(N[C@H](CCN5CCOCC5)CSc5ccccc5)c(S(=O)(=O)C(F)(F)F)c4)cc3)CC2)C1 [navitoclax] | 1.6
46 | CN(Cc1cnc2nc(N)nc(N)c2n1)c1ccc(C(=O)N[C@@H](CCC(=O)O)C(=O)O)cc1 [methotrexate] | 2.13
47 | C=CCn1c(=O)c2cnc(Nc3ccc(N4CCN(C)CC4)cc3)nc2n1-c1cccc(C(C)(C)O)n1 [adavosertib] | 1.38
48 | CC(C)(C(=O)NCC(F)(F)C(F)(F)F)C(=O)N[C@@H]1C(=O)Nc2ccccc2-c2ccccc21 | 1.64
49 | C[C@@H]1COCCN1c1cc(C2([S@](C)(=N)=O)CC2)nc(-c2cc[nH]c3nccc2-3)n1 [ceralasertib] | 1.23
50 | CCN1CCN(Cc2ccc(Nc3ncc(F)c(-c4cc(F)c5nc(C)n(C(C)C)c5c4)n3)nc2)CC1 [abemaciclib] | 1.62

Same assay, conditions: 1 µM; days in culture: 163

Row | SMILES | CTG-3D luminescence at 96 h
51 | COc1cccc2c1C(=O)c1c(O)c3c(c(O)c1C2=O)C[C@@](O)(C(=O)CO)C[C@@H]3O[C@H]1C[C@H](N)[C@H](O)[C@H](C)O1 [doxorubicin] | 1.38
52 | O=C(O)C1(C(=O)O)CCC1.[NH2-].[NH2-].[Pt+2] [carboplatin] | 2.1
53 | NC(=O)Nc1cc(-c2cccc(F)c2)sc1C(=O)N[C@H]1CCCNC1 [AZD7762] | 0.309
54 | Nc1ccn([C@@H]2O[C@H](CO)[C@@H](O)C2(F)F)c(=O)n1 [gemcitabine] | 1.15
55 | CC1(C)CCC(c2ccc(Cl)cc2)=C(CN2CCN(c3ccc(C(=O)NS(=O)(=O)c4ccc(N[C@H](CCN5CCOCC5)CSc5ccccc5)c(S(=O)(=O)C(F)(F)F)c4)cc3)CC2)C1 [navitoclax] | 1.99
56 | CN(Cc1cnc2nc(N)nc(N)c2n1)c1ccc(C(=O)N[C@@H](CCC(=O)O)C(=O)O)cc1 [methotrexate] | 2.14
57 | C=CCn1c(=O)c2cnc(Nc3ccc(N4CCN(C)CC4)cc3)nc2n1-c1cccc(C(C)(C)O)n1 [adavosertib] | 1.82
58 | CC(C)(C(=O)NCC(F)(F)C(F)(F)F)C(=O)N[C@@H]1C(=O)Nc2ccccc2-c2ccccc21 | 2.12
59 | C[C@@H]1COCCN1c1cc(C2([S@](C)(=N)=O)CC2)nc(-c2cc[nH]c3nccc2-3)n1 [ceralasertib] | 1.38
60 | CCN1CCN(Cc2ccc(Nc3ncc(F)c(-c4cc(F)c5nc(C)n(C(C)C)c5c4)n3)nc2)CC1 [abemaciclib] | 1.94

Same assay, conditions: 10 µM; days in culture: 105

Row | SMILES | CTG-3D luminescence at 96 h
61 | COc1cccc2c1C(=O)c1c(O)c3c(c(O)c1C2=O)C[C@@](O)(C(=O)CO)C[C@@H]3O[C@H]1C[C@H](N)[C@H](O)[C@H](C)O1 [doxorubicin] | 0.158
62 | O=C(O)C1(C(=O)O)CCC1.[NH2-].[NH2-].[Pt+2] [carboplatin] | 1.64
63 | NC(=O)Nc1cc(-c2cccc(F)c2)sc1C(=O)N[C@H]1CCCNC1 [AZD7762] | 0.228
64 | Nc1ccn([C@@H]2O[C@H](CO)[C@@H](O)C2(F)F)c(=O)n1 [gemcitabine] | 0.91
65 | CC1(C)CCC(c2ccc(Cl)cc2)=C(CN2CCN(c3ccc(C(=O)NS(=O)(=O)c4ccc(N[C@H](CCN5CCOCC5)CSc5ccccc5)c(S(=O)(=O)C(F)(F)F)c4)cc3)CC2)C1 [navitoclax] | 1.1
66 | CN(Cc1cnc2nc(N)nc(N)c2n1)c1ccc(C(=O)N[C@@H](CCC(=O)O)C(=O)O)cc1 [methotrexate] | 2
67 | C=CCn1c(=O)c2cnc(Nc3ccc(N4CCN(C)CC4)cc3)nc2n1-c1cccc(C(C)(C)O)n1 [adavosertib] | 0.412
68 | CC(C)(C(=O)NCC(F)(F)C(F)(F)F)C(=O)N[C@@H]1C(=O)Nc2ccccc2-c2ccccc21 | 2.09
69 | C[C@@H]1COCCN1c1cc(C2([S@](C)(=N)=O)CC2)nc(-c2cc[nH]c3nccc2-3)n1 [ceralasertib] | 0.567
70 | CCN1CCN(Cc2ccc(Nc3ncc(F)c(-c4cc(F)c5nc(C)n(C(C)C)c5c4)n3)nc2)CC1 [abemaciclib] | 0.994

Same assay, conditions: 10 µM; days in culture: 122

Row | SMILES | CTG-3D luminescence at 96 h
71 | COc1cccc2c1C(=O)c1c(O)c3c(c(O)c1C2=O)C[C@@](O)(C(=O)CO)C[C@@H]3O[C@H]1C[C@H](N)[C@H](O)[C@H](C)O1 [doxorubicin] | 0.153
72 | O=C(O)C1(C(=O)O)CCC1.[NH2-].[NH2-].[Pt+2] [carboplatin] | 2.27
73 | NC(=O)Nc1cc(-c2cccc(F)c2)sc1C(=O)N[C@H]1CCCNC1 [AZD7762] | 0.273
74 | Nc1ccn([C@@H]2O[C@H](CO)[C@@H](O)C2(F)F)c(=O)n1 [gemcitabine] | 1.31
75 | CC1(C)CCC(c2ccc(Cl)cc2)=C(CN2CCN(c3ccc(C(=O)NS(=O)(=O)c4ccc(N[C@H](CCN5CCOCC5)CSc5ccccc5)c(S(=O)(=O)C(F)(F)F)c4)cc3)CC2)C1 [navitoclax] | 1.52
